Data as given in BindingDB's records for doi:10.1021/acs.jmedchem.8b00642 (Korea Institute of Science and Technology, 2018).

Target: 5-hydroxytryptamine receptor 7 (Homo sapiens, UniProt P34969)
Test: Displacement of [3H]LSD from human 5-HT7 receptor expressed in HEK cell membranes after 1.5 hrs by microbeta scintillation counting method

5-hydroxytryptamine receptor 7, sequence (P34969 whole entry): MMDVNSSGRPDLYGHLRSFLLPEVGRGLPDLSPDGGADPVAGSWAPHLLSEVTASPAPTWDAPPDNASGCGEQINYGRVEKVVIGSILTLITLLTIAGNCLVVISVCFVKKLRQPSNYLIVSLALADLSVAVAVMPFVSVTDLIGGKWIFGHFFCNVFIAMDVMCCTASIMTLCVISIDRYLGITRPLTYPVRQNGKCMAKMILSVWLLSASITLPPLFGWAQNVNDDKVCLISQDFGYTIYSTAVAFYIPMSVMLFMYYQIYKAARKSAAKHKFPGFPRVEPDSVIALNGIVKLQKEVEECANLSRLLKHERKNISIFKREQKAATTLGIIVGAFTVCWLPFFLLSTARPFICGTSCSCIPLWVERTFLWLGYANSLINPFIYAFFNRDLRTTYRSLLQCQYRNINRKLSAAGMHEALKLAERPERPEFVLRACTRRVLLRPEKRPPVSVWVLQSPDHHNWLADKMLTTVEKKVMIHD

Ki: 32 nM
Compound: Clc1ccc(-c2n[nH]c3c2CCNCC3)cc1
